Data on two compounds can be found in patent publication US7754758B2, “Pyrrolidine derivatives acting as CCR3-receptor antagonists” (Novartis AG, priority 2004, dated 2010).

This assay concerns the target T1, human CCR-3 (Homo sapiens, UniProt P51677).
T1 construct: expressed in transfected cells; host or cells: rat basophil leukaemia (RBL-2H3) cells, membrane preparation
T1 sequence (P51677 1-355): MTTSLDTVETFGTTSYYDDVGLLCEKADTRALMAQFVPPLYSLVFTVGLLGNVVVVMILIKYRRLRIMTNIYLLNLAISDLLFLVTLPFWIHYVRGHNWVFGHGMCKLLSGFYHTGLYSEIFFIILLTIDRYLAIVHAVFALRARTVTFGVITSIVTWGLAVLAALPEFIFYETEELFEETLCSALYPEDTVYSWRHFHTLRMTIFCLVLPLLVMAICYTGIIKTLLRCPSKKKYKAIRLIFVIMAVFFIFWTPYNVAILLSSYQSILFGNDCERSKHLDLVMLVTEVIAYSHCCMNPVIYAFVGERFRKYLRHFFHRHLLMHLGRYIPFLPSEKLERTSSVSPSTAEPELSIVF
Description: [125I]-human eotaxin binding to CCR-3, SPA assay. The following applies: inhibition of [125I]-human eotaxin binding; membranes of RBL-2H3 cells stably expressing CCR3; 4 hours at room temperature. An excerpt:
Recombinant cells expressing human CCR-3 are captured by wheatgerm agglutinin (WGA) polyvinyltoluidene (PVT) SPA beads (available from Amersham), through a specific interaction between the WGA and carbohydrate residues of glycoproteins on the surface of the cells. [^125I]-human eotaxin (available from Amersham) binds specifically to CCR-3 receptors bringing the [^125I]-human eotaxin in close proximity to the SPA beads. Emitted â-particles from the [^125I]-human eotaxin excite, by its proximity, the fluorophore in the beads and produce light.
Preparation of Assay Buffer: 5.96 g HEPES and 7.0 g sodium chloride are dissolved in distilled water and 1 M aqueous CaCl2 (1 ml) and 1M aqueous MgCl2 (5 ml) are added. The pH is adjusted to 7.6 with NaOH and the solution made to a final volume of 1 l using distilled water. 5 g bovine serum albumin and 0.1 g sodium azide are then dissolved in the solution and the resulting buffer stored at 4° C. […]
Preparation of membranes: Confluent rat basophil leukaemia (RBL-2H3) cells stably expressing CCR3 are removed from tissue culture flasks using enzyme-free cell dissociation buffer and resuspended in phosphate-buffered saline. […] The resulting scintillations are counted using a Canberra Packard TopCount, each well being counted for 1 minute. […]

Consider `COc1cccc(NC(=O)NCCCN2CCC(Oc3ccc(F)cc3)C2)c1` (centres unmarked) [Example 2, 1-{3-[3-(4-fluorophenoxy)pyrrolidine-1-yl]propyl}-3-(3-methoxyphenyl)-urea], for which the IC50 came to 270 nM. Then `O=C(NCCCN1CCC(Oc2ccc(F)cc2)C1)Nc1ccc(F)c(F)c1` (centres unmarked) [Example 3], with 446 nM.

One may read the IC50 as the midpoint of a concentration-inhibition curve.
